Experimental data published in patent publication US9237747B2, “Herbicidal compositions comprising 4-amino-3-chloro-5-fluoro-6-(4-chloro-2-fluoro-3-methoxyphenyl) pyridine-2-carboxylic acid or a derivative thereof and insecticides” (priority 2013, dated 2016).
Values joined by “and” are separate entries in the source; they are usually repeats but may differ in a detail not shown here. Equal values may be shown once. Read-outs that look alike come from different tables or passages of the source.

Columns and labels:
IPOHE = assay type: in vivo, Ipomoea hederacea
Summary of the method: (§1)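 Greenhouse postemergence test: mixtures of Compound A (acid equivalent) and insecticidal components sprayed on young plants, with percent visual control read ~3 weeks later.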

DIGSA = assay type: in vivo, Digitaria sanguinalis
Summary of the method: as §1

LEFPA = experiment: Postemergence foliar-applied weed control, direct-seeded rice (greenhouse); assay type: in vivo, Leptochloa panicoides
From the text: Seeds or nutlets of the desired test plant species were planted in a soil matrix prepared by mixing a loam or sandy loam soil (e.g., 28.6 percent silt, 18.8 percent clay, and 52.6 percent sand, with a pH of about 5.8 and an organic matter content of about 1.8 percent) and calcareous grit in an 80 to 20 ratio. The soil matrix was contained in plastic pots with a volume of 1 quart and a surface area of 83.6 square centimeters (cm^2). When required to ensure good germination and healthy plants, a fungicide treatment and/or other chemical or physical treatment was applied. The plants were grown for 8-22 days in a greenhouse with an approximate 14 hour (h) photoperiod which was maintained at about 29° C. during the day and 26° C. during the night. Nutrients (Peters Excel® 15-5-15 5-Ca 2-Mg and iron chelate) were applied in the irrigation solution as needed and water was added on a regular basis. Supplemental lighting was provided with overhead metal halide 1000-Watt lamps as necessary. The plants were employed for testing when they reached the first through fourth true leaf stage.
Treatments consisted of the acid or esters of 4-amino-3-chloro-6-(4-chloro-2-fluoro-3-methoxyphenyl)-5-fluoropyridine-2-carboxylic acid (Compound A), each formulated as an SC (suspension concentrate), and various insecticidal components alone and in combination. Forms of compound A were applied on an acid equivalent basis.
Treatment requirements were calculated based upon the rates being tested, the concentration of active ingredient or acid equivalent in the formulation, and a 12 milliliter (mL) application volume at a rate of 187 liters per hectare (L/ha).
For treatments comprised of formulated compounds, measured amounts of compounds were placed individually in 25 mL glass vials and diluted in a volume of 1.25% volume per volume (v/v) Agri-Dex® crop oil concentrate to obtain 12× stock solutions. […] Application solutions were prepared by adding an appropriate amount of each stock solution (e.g., 1 mL) and diluted to the appropriate final concentrations with the addition of […] of an aqueous mixture of 1.25% (v/v) crop oil concentrate so that the final spray solutions contained 1.25+/−0.05% (v/v) crop oil concentrate.
As required, additional water and/or 97:3 v/v acetone/DMSO was added to individual application solutions so that the final acetone and DMSO concentrations of the application solutions being compared were 8.1% and 0.25%, respectively.
All stock solutions and applications solutions were visually inspected for compound compatibility prior to application. Spray solutions were applied to the plant material with an overhead Mandel track sprayer equipped with 8002E nozzles calibrated to deliver 187 L/ha over an application area of 0.503 square meters (m^2) at a spray height of 18 to 20 inches (46 to 50 cm) above average plant canopy height. Control plants were sprayed in the same manner with the solvent blank.
The treated plants and control plants were placed in a greenhouse as described above and watered by sub-irrigation to prevent wash-off of the test compounds. After approximately 3 weeks, the condition of the test plants as compared to that of the untreated plants was determined visually and scored on a scale of 0 to 100 percent where 0 corresponds to no injury or growth inhibition and 100 corresponds to complete kill.
Colby's equation was used to determine the herbicidal effects expected from the mixtures (Colby, S. R. Calculation of the synergistic and antagonistic response of herbicide combinations. Weeds 1967, 15, 20-22.).
The following equation was used to calculate the expected activity of mixtures containing two active ingredients, A and B: Expected=A+B−(A×B/100)

CYPES = assay type: in vivo, Cyperus esculentus
Summary of the method: as §1

In the case of COc1c(Cl)ccc(-c2nc(C(=O)O)c(Cl)c(N)c2F)c1F [Compound A Acid, 4-amino-3-chloro-6-(4-chloro-2-fluoro-3-methoxyphenyl)-5-fluoropyridine-2-carboxylic acid], the “Visual Weed Control (%) - 21 DAA IPOHE Obs” value (IPOHE; 5.3 g ae/ha alone) is reported as 10%, the “Visual Weed Control (%) - 21 DAA IPOHE Obs” value (IPOHE; 10.6 g ae/ha alone) is reported as 10% and the “Visual Weed Control (%) - 21 DAA IPOHE Obs” value (IPOHE; 21 DAA, 5.3 g ae/ha alone) is reported as 10%. For the same compound, the “Visual Weed Control (%) - 21 DAA IPOHE Obs” value (IPOHE; 21 DAA, 10.6 g ae/ha alone) was 10%, the “Visual Weed Control (%) - 21 DAA IPOHE Obs” value (IPOHE; 21 DAA, 21.2 g ae/ha alone) was 25% and the “Visual Weed Control (%) - 21 DAA IPOHE Obs” value (IPOHE; 21.2 g ae/ha alone) was 25%. For the same compound, the “Visual Weed Control (%) - 20 DAA DIGSA Obs” value (DIGSA; 4.38 g ae/ha alone) was 40%, the “Visual Weed Control (%) - 20 DAA DIGSA Obs” value (DIGSA; 5.3 g ae/ha alone) was 15% and the “Visual Weed Control (%) - 20 DAA DIGSA Obs” value (DIGSA; 10.6 g ae/ha alone) was 35%. For the same compound, the “Visual Weed Control (%) - 20 DAA DIGSA Obs” value (DIGSA; 21.2 g ae/ha alone) was 50%.

For COc1c(Cl)ccc(-c2nc(C(=O)OCc3ccccc3)c(Cl)c(N)c2F)c1F [Compound A Benzyl Ester], the “Visual Weed Control (%) - 22 DAA LEFPA Obs” value (LEFPA; 8 g ae/ha alone) was 5%, the “Visual Weed Control (%) - 22 DAA LEFPA Obs” value (LEFPA; 16 g ae/ha alone) was 0% and the “Visual Weed Control (%) - 22 DAA LEFPA Obs” value (LEFPA; 32 g ae/ha alone) was 38%. For the same compound, the “Visual Weed Control (%) - 20 DAA IPOHE Obs” value (IPOHE; 4.38 g ae/ha alone) was 10%, the “Visual Weed Control (%) - 20 DAA IPOHE Obs” value (IPOHE; 8 g ae/ha alone) was 10% and the “Visual Weed Control (%) - 21 DAA IPOHE Obs” value (IPOHE; 8 g ae/ha alone) was 10%. The “Visual Weed Control (%) - 20 DAA IPOHE Obs” value (IPOHE; 8.75 g ae/ha alone) was 15%, the “Visual Weed Control (%) - 20 DAA IPOHE Obs” value (IPOHE; 16 g ae/ha alone) was 40% and the “Visual Weed Control (%) - 21 DAA IPOHE Obs” value (IPOHE; 16 g ae/ha alone) was 50%. For the same compound, the “Visual Weed Control (%) - 22 DAA IPOHE Obs” value (IPOHE; 16 g ae/ha alone) was 10%, the “Visual Weed Control (%) - 19 DAA IPOHE Obs” value (IPOHE; 8 g ae/ha alone) was 20% and the “Visual Weed Control (%) - 19 DAA IPOHE Obs” value (IPOHE; 16 g ae/ha alone) was 40%. For the same compound, the “Visual Weed Control (%) - 19 DAA IPOHE Obs” value (IPOHE; 32 g ae/ha alone) was 50%, the “Visual Weed Control (%) - 21 DAA IPOHE Obs” value (IPOHE; 21 DAA, 4.38 g ae/ha alone) was 10% and the “Visual Weed Control (%) - 21 DAA IPOHE Obs” value (IPOHE; 21 DAA, 8 g ae/ha alone) was 10%. For the same compound, the “Visual Weed Control (%) - 21 DAA IPOHE Obs” value (IPOHE; 21 DAA, 8.75 g ae/ha alone) was 10%, the “Visual Weed Control (%) - 21 DAA IPOHE Obs” value (IPOHE; 21 DAA, 17.5 g ae/ha alone) was 20% and the “Visual Weed Control (%) - 22 DAA IPOHE Obs” value (IPOHE; 22 DAA, 16 g ae/ha alone) was 10%. For the same compound, the “Visual Weed Control (%) - 22 DAA IPOHE Obs” value (IPOHE; 22 DAA, 32 g ae/ha alone) was 35%, the “Visual Weed Control (%) - 20 DAA IPOHE Obs” value (IPOHE; 32 g ae/ha alone) was 50% and the “Visual Weed Control (%) - 21 DAA IPOHE Obs” value (IPOHE; 32 g ae/ha alone) was 60%. The “Visual Weed Control (%) - 22 DAA IPOHE Obs” value (IPOHE; 32 g ae/ha alone) was 35%, the “Visual Weed Control (%) - 20 DAA DIGSA Obs” value (DIGSA; 4.38 g ae/ha alone) was 40% and 25% and the “Visual Weed Control (%) - 20 DAA DIGSA Obs” value (DIGSA; 8 g ae/ha alone) was 20%. For the same compound, the “Visual Weed Control (%) - 21 DAA DIGSA Obs” value (DIGSA; 8 g ae/ha alone) was 10%, the “Visual Weed Control (%) - 22 DAA DIGSA Obs” value (DIGSA; 8 g ae/ha alone) was 13% and the “Visual Weed Control (%) - 20 DAA DIGSA Obs” value (DIGSA; 16 g ae/ha alone) was 23% and 30%. For the same compound, the “Visual Weed Control (%) - 22 DAA DIGSA Obs” value (DIGSA; 16 g ae/ha alone) was 18%, the “Visual Weed Control (%) - 20 DAA DIGSA Obs” value (DIGSA; 17.5 g ae/ha alone) was 15% and the “Visual Weed Control (%) - 19 DAA DIGSA Obs” value (DIGSA; 8 g ae/ha alone) was 30%. The “Visual Weed Control (%) - 19 DAA DIGSA Obs” value (DIGSA; 16 g ae/ha alone) was 35%, the “Visual Weed Control (%) - 19 DAA DIGSA Obs” value (DIGSA; 32 g ae/ha alone) was 40% and the “Visual Weed Control (%) - 22 DAA DIGSA Obs” value (DIGSA; 22 DAA, 8 g ae/ha alone) was 10% and 13%. The “Visual Weed Control (%) - 22 DAA DIGSA Obs” value (DIGSA; 22 DAA, 8 g ae/ha alone, second part of Table 18) was 13%, the “Visual Weed Control (%) - 22 DAA DIGSA Obs” value (DIGSA; 22 DAA, 16 g ae/ha alone) was 25% and 18% and 20% and the “Visual Weed Control (%) - 22 DAA DIGSA Obs” value (DIGSA; 22 DAA, 16 g ae/ha alone, second part of Table 18) was 18%. For the same compound, the “Visual Weed Control (%) - 22 DAA DIGSA Obs” value (DIGSA; 22 DAA, 32 g ae/ha alone) was 40% and 28% and 25%, the “Visual Weed Control (%) - 22 DAA DIGSA Obs” value (DIGSA; 22 DAA, 32 g ae/ha alone, second part of Table 18) was 28% and the “Visual Weed Control (%) - 20 DAA DIGSA Obs” value (DIGSA; 32 g ae/ha alone) was 30% and 40%. For the same compound, the “Visual Weed Control (%) - 22 DAA DIGSA Obs” value (DIGSA; 32 g ae/ha alone) was 28%, the “Visual Weed Control (%) - 20 DAA CYPES Obs” value (CYPES; 8 g ae/ha alone) was 25% and the “Visual Weed Control (%) - 22 DAA CYPES Obs” value (CYPES; 8 g ae/ha alone) was 70%. The “Visual Weed Control (%) - 20 DAA CYPES Obs” value (CYPES; 16 g ae/ha alone) was 40%, the “Visual Weed Control (%) - 22 DAA CYPES Obs” value (CYPES; 16 g ae/ha alone) was 95% and the “Visual Weed Control (%) - 22 DAA CYPES Obs” value (CYPES; 22 DAA, 8 g ae/ha alone) was 70%. For the same compound, the “Visual Weed Control (%) - 20 DAA CYPES Obs” value (CYPES; 32 g ae/ha alone) was 73%.
